Data as given in US20200354796A1, “Use of DNA Recombination Deficiency Score (RDS) in Cancer Treatment” (SHUWEN BIOTECH CO., LTD., priority 2017, published 2020).
Structures can show the parent of a compound that is named as a salt.

Key:
[1] = system: TNBC patients; conditions: CALGB 40603 study, combined carboplatin, cited from earlier work
[2] = system: HCC1937; test: In vitro drug sensitivity test of cells, MTS method; format: cell-based; conditions: HCC1937 human breast cancer cells, culture time 72 h-216 h
Source text: (§1) 1640 medium (Gibco), DMEM medium (Hyclone), MEM medium (Gibco), […] medium (Gibco), DMEM/F12 medium (Gibco), L-15 medium (Hyclone), IMDM culture Base (Hyclone), non-essential amino acid (Gibco), sodium pyruvate (Gibco), insulin-transferrin-selenium additive TS-G, Shanghai Yuanpei Bio-tech), fetal bovine serum ([…]), trypsin digestion fluid (Jiangsu KGI), Cell Titer 96® AQueousOne Solution Cell Proliferation Assay (Promega), 96-well cell culture plate (Corning, Cat. No. 3599), Cisplatin (sigma, Cat. No. P4394), Olaparib (Selleck, Cat. No. S1060), Topotecan hydrochloride hydrate (Sigma, article number T2705), Paclitaxel (Dalian Meilun, article number MB1178). [table] […] Then the inventors adjusted the cell suspension concentration to 1×10^4/mL, added the cells to a 96 well plate as 100 ul per well, that is, 1000-2000 cells per well. Then the cells were incubated at 5% CO2, 37° C. overnight. The next day, after the cells at the bottom of the 96-well plate adhered, various drugs with different concentration gradients were added: […] After putting the 96-well plate into a CO2 incubator for 72 hours, the cell morphology and density in each were observed. For slow-growing cells, supplementation treatment was needed. For different cells, the culture time was between 72 h-216 h, and most of the cell culture time was between 144 h-168 h. […] Measure the absorbance (OD) of each well at 492 nm. Cell Viabilities was calculated by the formula: [formula]

[3] = system: HT29; test: as above; format: cell-based; conditions: culture time 72 h-216 h
Source text: as §1

[4] = system: HCC827; test: as above; format: cell-based; conditions: HCC827 human lung adenocarcinoma cells, culture time 72 h-216 h
Source text: as §1

[5] = system: Capan-1; test: as above; format: cell-based; conditions: Capan-1 human pancreatic cancer cells, culture time 72 h-216 h
Source text: as §1

[6] = system: A549; test: as above; format: cell-based; conditions: A549 human non-small cell lung adenocarcinoma cells, culture time 72 h-216 h
Source text: as §1

[7] = system: H520; test: as above; format: cell-based; conditions: culture time 72 h-216 h
Source text: as §1

[8] = system: T84; test: as above; format: cell-based; conditions: T84 human colon cancer cells, culture time 72 h-216 h
Source text: as §1

[9] = system: H1650; test: as above; format: cell-based; conditions: culture time 72 h-216 h
Source text: as §1

[10] = system: CAMA-1; test: as above; format: cell-based; conditions: CAMA-1 human breast cancer cells, culture time 72 h-216 h
Source text: as §1

[11] = system: HCC4006; test: as above; format: cell-based; conditions: HCC4006 human lung adenocarcinoma cells, culture time 72 h-216 h
Source text: as §1

[12] = system: H3122; test: as above; format: cell-based; conditions: culture time 72 h-216 h
Source text: as §1

[13] = system: PC-3; test: as above; format: cell-based; conditions: PC-3 human prostate cancer cells, culture time 72 h-216 h
Source text: as §1

[14] = system: H2228; test: as above; format: cell-based; conditions: culture time 72 h-216 h
Source text: as §1

[15] = system: H2444; test: as above; format: cell-based; conditions: culture time 72 h-216 h
Source text: as §1

[16] = system: MDA-MB-436; test: as above; format: cell-based; conditions: MDA-MB-436 human breast cancer cells, culture time 72 h-216 h
Source text: as §1

[17] = system: MCF-7; test: as above; format: cell-based; conditions: culture time 72 h-216 h
Source text: as §1

[18] = system: Cal-120; test: as above; format: cell-based; conditions: Cal-120 human breast cancer cells, culture time 72 h-216 h
Source text: as §1

[19] = system: HCC95; test: as above; format: cell-based; conditions: HCC95 human lung cancer cells, culture time 72 h-216 h
Source text: as §1

[20] = system: H1299; test: as above; format: cell-based; conditions: culture time 72 h-216 h
Source text: as §1

[21] = system: HEK-293; test: as above; format: cell-based; conditions: culture time 72 h-216 h
Source text: as §1

[22] = system: H1975; test: as above; format: cell-based; conditions: culture time 72 h-216 h
Source text: as §1

[23] = system: KYSE450; test: as above; format: cell-based; conditions: culture time 72 h-216 h
Source text: as §1

[24] = HT-29, HT29 human colon cancer cells
[25] = NCI-H520, H520 human non-small cell lung squamous cell
[26] = NCI-H1650, H1650 human lung cancer cells
[27] = NCI-H3122, H3122 human non-small cell lung cancer cells
[28] = NCI-H2228, H2228 human non-small cell lung adenocarcinoma cells
[29] = NCI-H2444, H2444 human non-small cell lung cancer cells
[30] = MCF7, MCF-7 human breast cancer cells
[31] = NCI-H1299, H1299 human non-small cell lung cancer cells
[32] = HEK293, HEK-293 human embryonic kidney cells
[33] = NCI-H1975, H1975 human non-small cell lung adenocarcinoma cells
[34] = KYSE-450, KYSE450 human esophageal cancer cells

Molecule: carboplatin
- breast/axillary pCR rates ([1]; vs 41% without, P=0.0029): 54%
- breast pCR rates ([1]; vs 44% without, P=0.0018): 60%

Molecule: CC(=O)O[C@H]1C(=O)[C@@]2(C)[C@H]([C@H](OC(=O)c3ccccc3)[C@]3(O)C[C@H](OC(=O)[C@H](O)[C@@H](NC(=O)c4ccccc4)c4ccccc4)C(C)=C1C3(C)C)[C@]1(OC(C)=O)CO[C@@H]1C[C@@H]2O [Paclitaxel]
- IC50 [2]: 9 nM
- IC50 [3, 24]: 3.05 nM
- IC50 [4]: 9.26 nM
- IC50 [5]: 6.99 nM
- IC50 [6]: 5.86 nM
- IC50 [7, 25]: 6.99 nM
- IC50 [8]: 32.1 nM
- IC50 [9, 26]: 6.61 nM
- IC50 [10]: 4.16 nM
- IC50 [11]: 3.85 nM
- IC50 [12, 27]: 8.48 nM
- IC50 [13]: 4.27 nM
- IC50 [14, 28]: 5.2 nM
- IC50 [15, 29]: 7.1 nM
- IC50 [16]: 9.67 nM
- IC50 [17, 30]: 4.84 nM
- IC50 [18]: 43.5 nM
- IC50 [19]: 6.13 nM
- IC50 [20, 31]: 22.7 nM
- IC50 [21, 32]: 10.3 nM
- IC50 [22, 33]: 7 nM
- IC50 [23, 34]: 11.5 nM

Molecule: CC[C@@]1(O)C(=O)OCc2c1cc1n(c2=O)Cc2cc3c(CN(C)C)c(O)ccc3nc2-1 [Topotecan, Topotecan hydrochloride hydrate]
- IC50 [2]: 35.2 nM
- IC50 [3, 24]: 15.6 nM
- IC50 [4]: 12.6 nM
- IC50 [5]: 15.8 nM
- IC50 [6]: 250 nM
- IC50 [7, 25]: 9.17 nM
- IC50 [8]: 7.56 nM
- IC50 [9, 26]: 125 nM
- IC50 [10]: 0.907 nM
- IC50 [11]: 23.1 nM
- IC50 [12, 27]: 20 nM
- IC50 [13]: 20.1 nM
- IC50 [14, 28]: 24.6 nM
- IC50 [15, 29]: 8.09 nM
- IC50 [16]: 4.21 nM
- IC50 [17, 30]: 2.05 nM
- IC50 [18]: 518 nM
- IC50 [19]: 46.7 nM
- IC50 [20, 31]: 28.7 nM
- IC50 [21, 32]: 18 nM
- IC50 [22, 33]: 250 nM
- IC50 [23, 34]: 26.3 nM

Molecule: O=C(c1cc(Cc2n[nH]c(=O)c3ccccc23)ccc1F)N1CCN(C(=O)C2CC2)CC1 [Olaparib]
- IC50 [2]: 10000 nM
- IC50 [3, 24]: 7660 nM
- IC50 [4]: 6080 nM
- IC50 [5]: 2570 nM
- IC50 [6]: 80000 nM
- IC50 [7, 25]: 2190 nM
- IC50 [8]: 5850 nM
- IC50 [9, 26]: 75000 nM
- IC50 [10]: 8330 nM
- IC50 [11]: 9140 nM
- IC50 [12, 27]: 16900 nM
- IC50 [13]: 6220 nM
- IC50 [14, 28]: 10800 nM
- IC50 [15, 29]: 7670 nM
- IC50 [16]: < 2500 nM
- IC50 [17, 30]: 3510 nM
- IC50 [18]: 160000 nM
- IC50 [19]: 25300 nM
- IC50 [20, 31]: 40000 nM
- IC50 [21, 32]: 5880 nM
- IC50 [22, 33]: 80000 nM
- IC50 [23, 34]: 130000 nM

Molecule: N.N.[Cl][Pt][Cl] [Cisplatin, cis-diaminedichloroplatinum(II)]
- IC50 [2]: 259 nM
- IC50 ([3]; HT29 human colon cancer cells): 692 nM
- IC50 [4]: 626 nM
- IC50 [5]: 214 nM
- IC50 [6]: 1000 nM
- IC50 ([7]; H520 human non-small cell lung squamous cell): 464 nM
- IC50 [8]: 433 nM
- IC50 ([9]; H1650 human lung cancer cells): 1060 nM
- IC50 [10]: 1400 nM
- IC50 [11]: 1000 nM
- IC50 ([12]; H3122 human non-small cell lung cancer cells): 1540 nM
- IC50 [13]: 799 nM
- IC50 ([14]; H2228 human non-small cell lung adenocarcinoma cells): 514 nM
- IC50 ([15]; H2444 human non-small cell lung cancer cells): 1140 nM
- IC50 [16]: 139 nM
- IC50 ([17]; MCF-7 human breast cancer cells): 894 nM
- IC50 [18]: 4440 nM
- IC50 [19]: 878 nM
- IC50 ([20]; H1299 human non-small cell lung cancer cells): 2000 nM
- IC50 ([21]; HEK-293 human embryonic kidney cells): 465 nM
- IC50 ([22]; H1975 human non-small cell lung adenocarcinoma cells): 7000 nM
- IC50 ([23]; KYSE450 human esophageal cancer cells): 1460 nM
